From patent US20140120181A1, “COMPOSITION COMPRISING PHOSPHATIDYLCHOLINE AS AN ACTIVE INGREDIENT FOR ATTENUATING TOXICITY OF ANTICANCER AGENT” (AMI Pharm Co., Ltd., priority 2011, published 2014)
Entries after “also recorded” stand apart in the source; their conditions may differ.

Key:
[1] = tested on: BUN (blood urea nitrogen) and creatine; test: Analysis of kidney function (serum BUN and creatine), oral administration of PC; assay type: in vivo, Wistar-Hanover rats; settings: cisplatin 6 mg/kg i.p. alone (group 13), 6 days, FIG. 4
Protocol: Cisplatin and phosphatidylcholne were used as same as Example 1. But, phosphatidylcholne was suspended in 100 mg/ml of distilled water.
Thirty-six of 6-week-old adult male Wistar-Hanover rats (Nara-biotechnology, Seoul, Korea) were purchased and quarantined for 1 week and divided into 6 groups as shown in Table 4. They were maintained at 22±2° C. in 12 hour light dark cycle, and were given a normal laboratory diet (Purina. Korea) and fresh water ad libitum. Their body weight were 200˜220 g. After quarantine period, rats were fasted for 24 hours prior to injection of first phosphatidylcholine, but were allowed free access to water throughout.
In all groups, saline and cisplatin were injected intraperitoneally and phosphatidylcholine was administered orally. […]
Blood collected in Example <2-1> was centrifuged at 4000 rpm for 10 min and serum was separated. The level of BUN (blood urea nitrogen) and creatine in serum was measured.
The level of BUN was measured by Urase-GLDH method (Laboratory reference values. Urea nitrogen (BUN). Rochester, Minn.: Mayo Foundation for Medical Education and Research; November 2010), creatine was measured by Jaffe method (Jaffe method, Lamb E et al, tiez textbook of clinical chemistry and molecular diagnosis, St. louis; elsevier saunders, 2006; 791-801) and the contents were measured Beckman Coulter AU5421 (Beckman Coulter, USA).

[2] = tested on: GSH (glutathione) in kidney tissue; test: Quantification of GSH (glutathione) in kidney tissue; assay type: in vivo, Wistar-Hanover rats; settings: cisplatin 6 mg/kg i.p. only (group 13), FIG. 6
Protocol: (§1) Kidney samples collected from example <2-1> were immediately removed, washed in 0.9% saline and weighed. The kidneys were the mince with scissors, were homogenized in 0.1M Tris-HCl buffer (pH 7.4). The homogenization was carried out in Teflon-glass homogenizer (Bandelin, Germany) to obtain 1:10 (w/v) dilution. The homogenate was stored at −70° C. until analysis.
The total GSH content of kidney tissue prepared in the Example <2-3> was determined using a modification of the method of Beutler et al. (Beutler, Duron et al. 1963). The method uses principle that when DTNB (5′5-dithiobis-2-nitro-benzoic acid) and GHS react, 2-nitro-5-thiobenzoic acid (yellow color) are produced. Therefore, the concentration of GSH can be determined by measuring absorbance at 412 nm.
A mitochondrial fraction was prepared by centrifugation at 600 g for 5 mins and samples were added to 5% of metaphosphoric acid (MPA) and allowed to stand for 5 mins to precipitate proteins. 1M of Phosphate buffer (pH 7.0) was added to proteins in the volumetric ratio of 1:4 for homogenization and DTNB (5′5-dithiobis-2-nitro-benzoic acid) were added to proteins in the volumetric ratio of 8:5 for color development. GSH was determined by measuring absorbance at 415 nm (shimadzu UV-1240) and absolute concentrations were calculated using a GSH standard (Sigma, USA).

[3] = tested on: catalase, GPx (glutathione peroxidase), SOD (superoxide dismutase); test: Activity of catalase, GPx, SOD in kidney tissue; assay type: in vivo, Wistar-Hanover rats; settings: cisplatin 6 mg/kg i.p. only (group 13), FIG. 7
Protocol: as §1
The activities of catalase, GPx, SOD which are anti-oxidative enzymes in kidney tissue were measured by a commercial kit.
Since catalase decomposes H2O2 into water and oxygen, the activity of CAT was measured through decreased absorbance by decomposition of H2O2. The absorbance was measured by using catalase assay kit (Sigma, CAT #100).
The activity of GPx was measured by using Glutathione peroxidase cellular activity assay kit CGP-1 (Sigma Aldrich, Cat. #CGP1). […] The decrease in NADPH absorbance measured at 340 nm, during the oxidation of NADPH to NADP is was indicative of GPx activity.
The activity of SOD is measured using the SOD assay kit (19160 SOD determination kit, Fluka/sigma Aldrich). The amount inhibiting 50% of xanthine oxidase activity per 1 mg of protein was set as 1 unit and the absorbance was measured at 450 nm.

[4] = Measurement of body weight change during the test period; assay type: in vivo, SD rats; settings: for change of body weight: 6 days
Protocol: 6-week aged male SD rats (albino S.D rat) were bought, stabilized for 1 week, and then divided into 6 groups noted in [table 1] for the test. Breeding environment conditions of 24±2° C., and 12-hour light-dark cycles were maintained, and non-antibiotic general solid feed was used.
For all groups, an agent was administered through intraperitoneal injection.
They were bred while changes in their body weights were measured for 6 days. Then, after they were euthanized, their blood samples 5 cc were collected by a cardiac puncture, and their kidneys were extracted for used in a test.
During the test period, a body weight of the test group was measured.

[5] = tested on: MDA (malondialdehyde) in kidney tissue; test: Quantification of lipid peroxidation (MDA) in kidney tissue; assay type: in vivo, Wistar-Hanover rats; settings: cisplatin 6 mg/kg i.p. only (group 13), FIG. 5
Protocol: as §1
Degradation products of lipid peroxidate comprise a lot of carbonyl compounds and the representative is malondialdehyde, MDA. Therefore, the level of lipid peroxidation can be measured by quantification of MDA.
For quantification of MDA, the method of Buege and Aust (1978) were used. The samples were centrifuged at 12,000 g at 4° C. for 15 min, then 0.3 ml supernatant was removed and mixed with 0.9 ml of 8% trichloroacetic acid (TCA). The sample was again centrifuged at 10,000 g at 4° C. for 5 min. A 1 ml aliquot of supernatant was added to 0.25 ml of 1% TBA, and the resulting solution was heated at 100° C. for 20 min. […] After centrifugation at 3,000 g at 4° C. for 5 min, 1 ml of the n-butanol phase was isolated and the absorbance at 532 nm was measured. The standard curve of MDA was calculated from the absorbance and the amount of MDA per weight of tissue was measured and it is shown in FIG. 5A.
MDA content was calculated with MDA standards (Buege and Aust 1978).

kidney tissues = test: Observation of a morphological change in kidney tissues (H&E, optical microscope); assay type: in vivo, SD rats; settings: CDDP 5 mg/kg i.p. alone (group 3), FIG. 3-B
Excerpt: A rats kidney obtained from Example <1-1> was fixed in 10% neutral formalin, sliced by microtechnique, and subjected to haematoxylin & eosin staining through a general tissue processing process. Each of the stained kidney tissues was observed by an optical microscope.

[6] = tested on: BUN (blood urea nitrogen) and creatinine; test: Test on a kidney function (serum BUN and creatinine), cisplatin nephrotoxicity, intra-peritoneal PC; assay type: in vivo, SD rats; settings: PC i.p. 1 hour after CDDP 5 mg/kg i.p.
Protocol: The separated serum was used to measure BUN (blood urea nitrogen) and creatinine.
The measurement of BUN was carried out by using a BUN measuring kit (Young dong diagnostics) in the same manner as described below. A urea agent 0.1 ml was mixed with buffer 20 ml to prepare enzyme buffer, and the prepared enzyme buffer was added to each of 2 test tubes. To one of the test tubes, a to-be-tested serum sample 0.02 ml was added, and to the other test tube, a control reference solution [containing urea-N 60 mg/100 ml] 0.02 ml was added, followed by culturing at 37° C. for 15 min. Then, each test tube was added with chromogenic solution 2 ml, and cultured at 37° C. for 5 min again. By measuring the absorbance at 570 nm, the level of produced BUN was measured.
The measurement of creatinine was carried out by using a creatinine measuring kit (young dong diagnostics) in the same manner as described below. […] Exactly after 15 min, at 515 nm, absorbency was measured.

ICR mice = test: Lethality reducing effect by paclitaxel (LD50 of paclitaxel with PC pretreatment); assay type: in vivo; settings: PC 0, 300, 600 mg/kg i.p. 4 hours before Taxol i.p.; lethality after 24 hours, FIG. 8; listed as phosphatidylcholine
Protocol: 6-week aged ICR mice (Samtako, Korea) were bought, and divided into 15 groups noted in table 5. They were stabilized for 20 hrs under conditions of 24±2° C., and 12-hour light-dark cycles while being fed with non-antibiotic general solid feed. […] After being stabilized, the mice were intra-peritoneally injected with the same phosphatidylcholine as that used in <Example 1-1>. After 4 hours, Taxol™ (BMS©, paclitaxel 6 mg/ml) was intra-peritoneally injected to the mice in which its amount was adjusted in such a manner that paclitaxel can be administered in an amount noted in table 5 below.
After 24 hours from administration of taxol, lethality of mice was measured. Based on the measured data on lethality, LD50 (a paclitaxel dose at lethality of 50%) in each of A, B, and C groups was measured.

rats = test: Lethality after 6 days, CDDP with or without PC; assay type: in vivo, SD rats; settings: PC 400 mg/kg i.p. alone (group 8)
Protocol: As noted in [table 3], a test group was prepared, and administered with a drug. After 6 days, lethality was calculated. An administration method, a test animal and a breeding method, etc. were the same as those in Example <1-1>.

Compound	BUN level in serum [1]	creatine level in serum [1]	level of glutathione in kidney tissue [2]	levels of the anti-oxidative enzymes (catalase, GPx, SOD) in kidney tissue [3]	change of body weight ([4]; CDDP 5 mg/kg i.p. alone (group 3))	change of body weight ([4]; CDDP 5 mg/kg i.p. alone (group 3), listed as cisplatin)	body weight decreased by ([4]; CDDP 5 mg/kg i.p. alone (group 3), test period)	MDA level in kidney tissue [5]	morphological change in kidney tissues (kidney tissues)	change of body weight ([4]; PC 400 mg/kg i.p. alone (group 2))	PC dose at which nephrotoxicity caused by CDDP was reduced [6]	LD50 of paclitaxel (ICR mice)	lethal rate (rats)
N.N.[Cl][Pt][Cl] [CDDP, cis-dichlorodiammineplatinum]	increase	increase	significantly low compared to control group 11	significantly reduced compared to control group 11	−7.1%	reduction in body weight	about 7.1%	very high compared to control group 11	most epithelial cells in a proximal part and a distal part of the kidney showed a necrotic change through an inflammatory reaction	–	–	–	–
CCCCC/C=C/CCCCCCCC(=O)OC(COC(=O)CCCCCCCCCCCCC)COP(=O)([O-])OCC[N+](C)(C)C [PC, 1,2-diacyl-L-3-glycerylphosphorylcholine]	–	–	–	–	–	–	–	–	–	+9.2%	≥ 600 mg/kg	tends to increase; also recorded: increases depending on dosage of phosphatidylcholine	0%
